Laboratory results taken from the supplement of paper PMC10307832.

Tests used:
Assay in all cases: relative viability (nuclei count vs DMSO), 5 days (fraction); higher = more cells survive
HCC-44 = system: HCC-44
Summary of the method: (§1)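 Medians of duplicate plates are given as relative viability. That measure is the nuclei count in treated wells divided by the count in vehicle wells. Counts were taken on 4× images of lung cancer cell lines in 1536-well plates, 5 days after pin-tool dosing the day after seeding with one drug alone or a fixed anchor-drug dose plus five library-drug doses (not always all listed) in √10 steps.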

SW 1573 = system: SW 1573
Summary of the method: as §1

H3255 = system: H3255
Summary of the method: as §1

NCI-H596 = system: NCI-H596
Summary of the method: as §1

NCI-H1793 = system: NCI-H1793
Summary of the method: as §1

LU99A = system: LU99A
Summary of the method: as §1

COR-L23 = system: COR-L23
Summary of the method: as §1

LK-2 = system: LK-2
Summary of the method: as §1

PC-14 = system: PC-14
Summary of the method: as §1

NCI-H460 = system: NCI-H460
Summary of the method: as §1

NCI-H1650 = system: NCI-H1650
Summary of the method: as §1

201T = system: 201T
Summary of the method: as §1

NCI-H727 = system: NCI-H727
Summary of the method: as §1

NCI-H2347 = system: NCI-H2347
Summary of the method: as §1

NCI-H23 = system: NCI-H23
Summary of the method: as §1

NCI-H2228 = system: NCI-H2228
Summary of the method: as §1

LC-2-ad = system: LC-2-ad
Summary of the method: as §1

A-427 = system: A-427
Summary of the method: as §1

LCLC-97TM1 = system: LCLC-97TM1
Summary of the method: as §1

`CC(=O)O[C@@]12CO[C@@H]1C[C@H](O)[C@@]1(C)C(=O)[C@H](O)C3=C(C)[C@@H](OC(=O)[C@H](O)[C@@H](NC(=O)OC(C)(C)C)c4ccccc4)C[C@@](O)([C@@H](OC(=O)c4ccccc4)[C@H]21)C3(C)C` [Docetaxel] + CC1(C)CCC(c2ccc(Cl)cc2)=C(CN2CCN(c3ccc(C(=O)NS(=O)(=O)c4ccc(N[C@H](CCN5CCOCC5)CSc5ccccc5)c(S(=O)(=O)C(F)(F)F)c4)cc3)CC2)C1 [Navitoclax] (partner 0.5 µM) showed a relative viability (HCC-44; first compound 0.0002 µM) of 0.962, a relative viability (HCC-44; first compound 0.000632 µM) of 0.934 and a relative viability (HCC-44; first compound 0.002 µM) of 0.362. The relative viability (HCC-44; first compound 0.006325 µM) was 0.242, the relative viability (HCC-44; first compound 0.02 µM) was 0.149 and the relative viability (SW 1573; first compound 0.0002 µM) was 1.06. The relative viability (SW 1573; first compound 0.000632 µM) was 0.204, the relative viability (SW 1573; first compound 0.002 µM) was 0.15 and the relative viability (SW 1573; first compound 0.006325 µM) was 0.0763. The relative viability (SW 1573; first compound 0.02 µM) was 0.0456, the relative viability (H3255; first compound 0.0002 µM) was 0.399 and the relative viability (H3255; first compound 0.000632 µM) was 0.46. It also gave a relative viability (H3255; first compound 0.002 µM) of 0.181, a relative viability (H3255; first compound 0.006325 µM) of 0.141 and a relative viability (H3255; first compound 0.02 µM) of 0.102. The relative viability (NCI-H596; first compound 0.0002 µM) was 0.882, the relative viability (NCI-H596; first compound 0.000632 µM) was 0.799 and the relative viability (NCI-H596; first compound 0.002 µM) was 0.565. The relative viability (NCI-H596; first compound 0.006325 µM) was 0.477, the relative viability (NCI-H596; first compound 0.02 µM) was 0.208 and the relative viability (NCI-H1793; first compound 0.0002 µM) was 0.337. The relative viability (NCI-H1793; first compound 0.000632 µM) was 0.432, the relative viability (NCI-H1793; first compound 0.002 µM) was 0.292 and the relative viability (NCI-H1793; first compound 0.006325 µM) was 0.228. For the same compound, the relative viability (NCI-H1793; first compound 0.02 µM) was 0.131, the relative viability (LU99A; first compound 0.0002 µM) was 0.865 and the relative viability (LU99A; first compound 0.000632 µM) was 0.533. The relative viability (LU99A; first compound 0.002 µM) was 0.277, the relative viability (LU99A; first compound 0.006325 µM) was 0.201 and the relative viability (LU99A; first compound 0.02 µM) was 0.148. For the same compound, the relative viability (COR-L23; first compound 0.0002 µM) was 0.899, the relative viability (COR-L23; first compound 0.000632 µM) was 0.939 and the relative viability (COR-L23; first compound 0.002 µM) was 0.373. For the same compound, the relative viability (COR-L23; first compound 0.006325 µM) was 0.0756, the relative viability (COR-L23; first compound 0.02 µM) was 0.0656 and the relative viability (LK-2; first compound 0.0002 µM) was 0.805. It also gave a relative viability (LK-2; first compound 0.000632 µM) of 0.556, a relative viability (LK-2; first compound 0.002 µM) of 0.172 and a relative viability (LK-2; first compound 0.006325 µM) of 0.133. It also gave a relative viability (LK-2; first compound 0.02 µM) of 0.145, a relative viability (PC-14; first compound 0.0002 µM) of 0.978 and a relative viability (PC-14; first compound 0.000632 µM) of 0.961. For the same compound, the relative viability (PC-14; first compound 0.002 µM) was 0.201, the relative viability (PC-14; first compound 0.006325 µM) was 0.0826 and the relative viability (PC-14; first compound 0.02 µM) was 0.0464. The relative viability (NCI-H460; first compound 0.0002 µM) was 0.997, the relative viability (NCI-H460; first compound 0.000632 µM) was 0.219 and the relative viability (NCI-H460; first compound 0.002 µM) was 0.0187. For the same compound, the relative viability (NCI-H460; first compound 0.006325 µM) was 0.0123, the relative viability (NCI-H460; first compound 0.02 µM) was 0.0104 and the relative viability (NCI-H1650; first compound 0.0002 µM) was 1.13. It also gave a relative viability (NCI-H1650; first compound 0.000632 µM) of 1.02, a relative viability (NCI-H1650; first compound 0.002 µM) of 0.182 and a relative viability (NCI-H1650; first compound 0.006325 µM) of 0.19. For the same compound, the relative viability (NCI-H1650; first compound 0.02 µM) was 0.104, the relative viability (201T; first compound 0.0002 µM) was 1.18 and the relative viability (201T; first compound 0.000632 µM) was 1.21. The relative viability (201T; first compound 0.002 µM) was 1.06, the relative viability (201T; first compound 0.006325 µM) was 0.507 and the relative viability (201T; first compound 0.02 µM) was 0.347. It also gave a relative viability (NCI-H727; first compound 0.0002 µM) of 0.488, a relative viability (NCI-H727; first compound 0.000632 µM) of 0.442 and a relative viability (NCI-H727; first compound 0.002 µM) of 0.308. The relative viability (NCI-H727; first compound 0.02 µM) was 0.149, the relative viability (NCI-H2347; first compound 0.0002 µM) was 0.844 and the relative viability (NCI-H2347; first compound 0.000632 µM) was 0.653. For the same compound, the relative viability (NCI-H2347; first compound 0.002 µM) was 0.408, the relative viability (NCI-H2347; first compound 0.006325 µM) was 0.359 and the relative viability (NCI-H2347; first compound 0.02 µM) was 0.258. For the same compound, the relative viability (NCI-H23; first compound 0.0002 µM) was 0.876, the relative viability (NCI-H23; first compound 0.000632 µM) was 0.741 and the relative viability (NCI-H23; first compound 0.002 µM) was 0.514. The relative viability (NCI-H23; first compound 0.006325 µM) was 0.242, the relative viability (NCI-H2228; first compound 0.0002 µM) was 0.854 and the relative viability (NCI-H2228; first compound 0.000632 µM) was 0.35. The relative viability (NCI-H2228; first compound 0.002 µM) was 0.156, the relative viability (NCI-H2228; first compound 0.006325 µM) was 0.114 and the relative viability (NCI-H2228; first compound 0.02 µM) was 0.056. It also gave a relative viability (LC-2-ad; first compound 0.0002 µM) of 0.237, a relative viability (LC-2-ad; first compound 0.000632 µM) of 0.18 and a relative viability (LC-2-ad; first compound 0.002 µM) of 0.114. It also gave a relative viability (LC-2-ad; first compound 0.006325 µM) of 0.0942, a relative viability (LC-2-ad; first compound 0.02 µM) of 0.0914 and a relative viability (A-427; first compound 0.0002 µM) of 0.987. It also gave a relative viability (A-427; first compound 0.000632 µM) of 0.926, a relative viability (A-427; first compound 0.002 µM) of 0.641 and a relative viability (A-427; first compound 0.006325 µM) of 0.26. It also gave a relative viability (A-427; first compound 0.02 µM) of 0.181, a relative viability (LCLC-97TM1; first compound 0.000632 µM) of 0.498 and a relative viability (LCLC-97TM1; first compound 0.002 µM) of 0.145. It also gave a relative viability (LCLC-97TM1; first compound 0.006325 µM) of 0.168 and a relative viability (LCLC-97TM1; first compound 0.02 µM) of 0.11.
